Assay results reported in patent US9732093B2, “FLAP modulators” (JANSSEN PHARMACEUTICA NV, priority 2013, dated 2017).

Molecular target: human FLAP (Homo sapiens (Human), UniProt P20292)
Test: FLAP binding assay (HTRF format)
Conditions: human FLAP wild type membranes, HTRF format; Table 6 (additional runs)
Procedure: The ability of the compounds of the present invention to treat a FLAP-mediated disease and/or disorder, or associated symptoms or complications thereof, was determined using the following procedures. Binding assay data represent the average value obtained from two different assay plates, with samples run in duplicate on each plate. Human whole blood assay data represent a single replicate on an assay plate using whole blood from at least one healthy donor.
Data are expressed as a HTRF ratio.

Chain of human FLAP (P20292 whole entry): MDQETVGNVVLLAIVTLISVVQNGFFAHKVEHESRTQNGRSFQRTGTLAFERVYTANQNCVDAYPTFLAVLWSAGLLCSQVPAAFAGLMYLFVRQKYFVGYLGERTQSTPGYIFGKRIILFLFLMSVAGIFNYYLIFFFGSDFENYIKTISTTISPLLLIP

| Structure (SMILES) | Ki [nM] |
| --- | --- |
| Nc1cnc(-c2ccc(C3CCC3)c(OCC3CCCNC3)c2F)cn1 (racemic) [Example 299, racemic 5-[4-Cyclobutyl-2-fluoro-3-(piperidin-3-ylmethoxy)phenyl]pyrazin-2-amine] | 1960 |
| COc1c(C2CCC2)ccc(-c2cnc(N)cn2)c1F [A, 5-(4-Cyclobutyl-2-fluoro-3-methoxyphenyl)pyrazin-2-amine] | 52.6 |
| Nc1cnc(-c2ccc(C3CCC3)c(O)c2F)cn1 [B, 3-(5-Aminopyrazin-2-yl)-6-cyclobutyl-2-fluorophenol] | 83.9 |
| Nc1cnc(-c2ccc(C3CCC3)c(OCc3ccc(C(F)(F)F)cc3)c2F)cn1 [Compound 1, 5-(4-Cyclobutyl-2-fluoro-3-{[4-(trifluoromethyl)benzyl]oxy}phenyl)pyrazin-2-amine] | 62.8 |
| Nc1cnc(-c2ccc(C3CCC3)c(OCc3ccccc3C(F)(F)F)c2F)cn1 [Compound 3, 5-(4-Cyclobutyl-2-fluoro-3-{[2-(trifluoromethyl)benzyl]oxy}phenyl)pyrazin-2-amine] | 118 |
| Nc1cnc(-c2ccc(C3CCC3)c(OCc3cccc(C(=O)O)c3)c2F)cn1 [Compound 4, 3-{[3-(5-Aminopyrazin-2-yl)-6-cyclobutyl-2-fluorophenoxy]methyl}benzoic acid] | 5.8 |
| Nc1cnc(-c2ccc(C3CCC3)c(OCc3ccc(C(=O)O)cc3)c2F)cn1 [Compound 5, 4-{[3-(5-Aminopyrazin-2-yl)-6-cyclobutyl-2-fluorophenoxy]methyl}benzoic acid] | 10.2 |
| CS(=O)(=O)c1cccc(COc2c(C3CCC3)ccc(-c3cnc(N)cn3)c2F)c1 [Compound 6, 5-(4-Cyclobutyl-2-fluoro-3-{[3-(methylsulfonyl)benzyl]oxy}phenyl)pyrazin-2-amine] | 13.6 |
| CS(=O)(=O)c1ccc(COc2c(C3CCC3)ccc(-c3cnc(N)cn3)c2F)cc1 [Compound 7, 5-(4-Cyclobutyl-2-fluoro-3-{[4-(methylsulfonyl)benzyl]oxy}phenyl)pyrazin-2-amine] | 7.4 |
| CC(=O)c1ccc(COc2c(C3CCC3)ccc(-c3cnc(N)cn3)c2F)cc1 [Compound 12, 1-(4-{[3-(5-Aminopyrazin-2-yl)-6-cyclobutyl-2-fluorophenoxy]methyl}phenyl)ethanone] | ~89.9 |
| Nc1cnc(-c2ccc(C3CCC3)c(OCc3cccnc3)c2F)cn1 [Compound 13, 5-[4-Cyclobutyl-2-fluoro-3-(pyridin-3-ylmethoxy)phenyl]pyrazin-2-amine] | 27.1 |
| Nc1cnc(-c2ccc(C3CCC3)c(OCc3ccncc3)c2F)cn1 [Compound 14, 5-[4-Cyclobutyl-2-fluoro-3-(pyridin-4-ylmethoxy)phenyl]pyrazin-2-amine] | 22.6 |
| N#Cc1cccc(COc2c(C3CCC3)ccc(-c3cnc(N)cn3)c2F)c1 [Compound 16, 3-{[3-(5-Aminopyrazin-2-yl)-6-cyclobutyl-2-fluorophenoxy]methyl}benzonitrile] | 19.9 |
| NC(=O)c1cccc(COc2c(C3CCC3)ccc(-c3cnc(N)cn3)c2F)c1 [Compound 17, 3-{[3-(5-Aminopyrazin-2-yl)-6-cyclobutyl-2-fluorophenoxy]methyl}benzamide] | 12.5 |
| N#Cc1ccccc1COc1c(C2CCC2)ccc(-c2cnc(N)cn2)c1F [Compound 18, 2-{[3-(5-Aminopyrazin-2-yl)-6-cyclobutyl-2-fluorophenoxy]methyl}benzonitrile] | 59 |
| NC(=O)c1ccccc1COc1c(C2CCC2)ccc(-c2cnc(N)cn2)c1F [Compound 19, 2-{[3-(5-Aminopyrazin-2-yl)-6-cyclobutyl-2-fluorophenoxy]methyl}benzamide] | 3.8 |
| Nc1cnc(-c2ccc(C3CCC3)c(OCc3ccc(CC(=O)O)cc3)c2F)cn1 [Compound 23, (4-{[3-(5-Aminopyrazin-2-yl)-6-cyclobutyl-2-fluorophenoxy]methyl}phenyl)acetic acid] | 3.7 |
| Nc1cnc(-c2ccc(C3CCC3)c(OCc3ccccn3)c2F)cn1 [Compound 24, 5-[4-Cyclobutyl-2-fluoro-3-(pyridin-2-ylmethoxy)phenyl]pyrazin-2-amine] | 16.2 |
| CNS(=O)(=O)c1ccc(COc2c(C3CCC3)ccc(-c3cnc(N)cn3)c2F)cc1 [Compound 27, 4-{[3-(5-Aminopyrazin-2-yl)-6-cyclobutyl-2-fluorophenoxy]methyl}-N-methylbenzenesulfonamide] | 6.4 |
| Nc1cnc(-c2ccc(C3CCC3)c(OCc3ccc(F)cc3)c2F)cn1 [Compound 28, 5-{4-Cyclobutyl-2-fluoro-3-[(4-fluorobenzyl)oxy]phenyl}pyrazin-2-amine] | 66.2 |
| Nc1cnc(-c2ccc(C3CCC3)c(OCc3cccc(F)c3)c2F)cn1 [Compound 29, 5-{4-Cyclobutyl-2-fluoro-3-[(3-fluorobenzyl)oxy]phenyl}pyrazin-2-amine] | 24.6 |
| Nc1cnc(-c2ccc(C3CCC3)c(OCc3ccccc3F)c2F)cn1 [Compound 30, 5-{4-Cyclobutyl-2-fluoro-3-[(2-fluorobenzyl)oxy]phenyl}pyrazin-2-amine] | 33.5 |

| Structure (SMILES) | Ki [nM] |
| --- | --- |
| Nc1cnc(-c2ccc(C3CCC3)c(OCc3ccc(F)c(F)c3)c2F)cn1 [Compound 33, 5-{4-Cyclobutyl-3-[(3,4-difluorobenzyl)oxy]-2-fluorophenyl}pyrazin-2-amine] | ~250 |
| Nc1cnc(-c2ccc(C3CCC3)c(OCc3cc(Cl)ccc3Cl)c2F)cn1 [Compound 38, 5-{4-Cyclobutyl-3-[(2,5-dichlorobenzyl)oxy]-2-fluorophenyl}pyrazin-2-amine] | ~250 |
| Nc1cnc(-c2ccc(C3CCC3)c(OCc3ccccc3C(=O)O)c2F)cn1 [Example 46, 2-{[3-(5-Aminopyrazin-2-yl)-6-cyclobutyl-2-fluorophenoxy]methyl}benzoic acid] | 6.9 |
| CC(C)(C)OC(=O)COc1c(C2CCC2)ccc(-c2cnc(N)cn2)c1F [Example 49, tert-Butyl [3-(5-aminopyrazin-2-yl)-6-cyclobutyl-2-fluorophenoxy]acetate] | ~134 |
| Nc1cnc(-c2ccc(C3CCC3)c(OCC(=O)O)c2F)cn1 [Example 50, [3-(5-Aminopyrazin-2-yl)-6-cyclobutyl-2-fluorophenoxy]acetic acid] | 787 |
| CS(=O)(=O)N1CCC(COc2c(C3CCC3)ccc(-c3cnc(N)cn3)c2F)CC1 [Example 68, 5-(4-Cyclobutyl-2-fluoro-3-{[1-(methylsulfonyl)piperidin-4-yl]methoxy}phenyl)pyrazin-2-amine] | 136 |
| Cc1ccnc(Oc2c(C3CCC3)ccc(-c3cnc(N)cn3)c2F)n1 [Example 69, 5-{4-Cyclobutyl-2-fluoro-3-[(4-methylpyrimidin-2-yl)oxy]phenyl}pyrazin-2-amine] | 14 |
| Cc1nc(COc2c(C3CCC3)ccc(-c3cnc(N)cn3)c2F)no1 [Example 70, 5-{4-Cyclobutyl-2-fluoro-3-[(5-methyl-1,2,4-oxadiazol-3-yl)methoxy]phenyl}pyrazin-2-amine] | 34.2 |
| Nc1cnc(-c2ccc(C3CCC3)c(OCC3CCCCC3)c2F)cn1 [Example 71, 5-[4-Cyclobutyl-3-(cyclohexylmethoxy)-2-fluorophenyl]pyrazin-2-amine] | 421 |
| Nc1cnc(-c2ccc(C3CCC3)c(OCC3CC3)c2F)cn1 [Example 72, 5-[4-Cyclobutyl-3-(cyclopropylmethoxy)-2-fluorophenyl]pyrazin-2-amine] | 23.7 |
| CCOC(=O)c1ccc(COc2c(C3CCC3)ccc(-c3cnc(N)cn3)c2F)o1 [Example 73, Ethyl 5-{[3-(5-aminopyrazin-2-yl)-6-cyclobutyl-2-fluorophenoxy]methyl}furan-2-carboxylate] | 275 |
| CC(C)(C)OC(=O)N1CCC(COc2c(C3CCC3)ccc(-c3cnc(N)cn3)c2F)CC1 [Example 74, tert-Butyl 4-{[3-(5-aminopyrazin-2-yl)-6-cyclobutyl-2-fluorophenoxy]methyl}piperidine-1-carboxylate] | 175 |
| Nc1cnc(-c2ccc(C3CCC3)c(OCc3cc(S(F)(F)(F)(F)F)ccc3F)c2F)cn1 [Example 77, 5-(4-Cyclobutyl-2-fluoro-3-{[2-fluoro-5-(pentafluoro-lambda˜6˜-sulfanyl)benzyl]oxy}phenyl)pyrazin-2-amine] | ~200 |
| Nc1cnc(-c2ccc(C3CCC3)c(OCC3CCC3)c2F)cn1 [Example 82, 5-[4-Cyclobutyl-3-(cyclobutylmethoxy)-2-fluorophenyl]pyrazin-2-amine] | 208 |
| Nc1cnc(-c2ccc(C3CCC3)c(OCc3ccccc3)c2F)cn1 [Example 83, 5-[3-(Benzyloxy)-4-cyclobutyl-2-fluorophenyl]-pyrazin-2-amine] | 44.5 |
| Nc1cnc(-c2ccc(C3CCC3)c(OCc3ccc(C(=O)O)o3)c2F)cn1 [Example 85, 5-{[3-(5-Aminopyrazin-2-yl)-6-cyclobutyl-2-fluorophenoxy]methyl}furan-2-carboxylic acid] | 28.1 |
| Cc1cc(N)nc(Oc2c(C3CCC3)ccc(-c3cnc(N)cn3)c2F)n1 [Example 86, 2-[3-(5-Aminopyrazin-2-yl)-6-cyclobutyl-2-fluorophenoxy]-6-methylpyrimidin-4-amine] | 6.2 |
| Nc1cnc(-c2ccc(C3CCC3)c(Oc3nccc(-c4ccccc4)n3)c2F)cn1 [Example 87, 5-{4-Cyclobutyl-2-fluoro-3-[(4-phenylpyrimidin-2-yl)oxy]phenyl}pyrazin-2-amine] | 2.1 |
| CSc1ccnc(Oc2c(C3CCC3)ccc(-c3cnc(N)cn3)c2F)n1 [Example 88, 5-(4-Cyclobutyl-2-fluoro-3-{[4-(methylsulfanyl)pyrimidin-2-yl]oxy}phenyl)pyrazin-2-amine] | 3.5 |
| Cc1cc(C)nc(Oc2c(C3CCC3)ccc(-c3cnc(N)cn3)c2F)n1 [Example 89, 5-{4-Cyclobutyl-3-[(4,6-dimethylpyrimidin-2-yl)oxy]-2-fluorophenyl}pyrazin-2-amine] | 5.3 |
| CC(C)c1ccnc(Oc2c(C3CCC3)ccc(-c3cnc(N)cn3)c2F)n1 [Example 90, 5-(4-Cyclobutyl-2-fluoro-3-{[4-(1-methylethyl)pyrimidin-2-yl]oxy}phenyl)pyrazin-2-amine] | 53.8 |
